From US20260166159A1, “KRAS G12D DEGRADATION AGENT, AND PREPARATION METHOD AND USE THEREFOR” (LEADINGTAC PHARMACEUTICAL (SHAOXING) CO., LTD., priority 2022, published 2026)
pIC50: −log10 of the molar value.

Tests used:
[1] = target: T1, Human KRAS G12D 6His-tagged (Homo sapiens, UniProt P01116, G12D); assay: KRAS-G12D/GTP binding assay (HTRF)
T1 construct: purchased PerkinElmer
In short: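 Compounds at 0.02-5000 nM final (0.5% DMSO) were tested for blocking GTP Red tracer binding to His-tagged KRAS G12D, detected by Eu-cryptate anti-His antibody after 1 h, 25° C. Inhibition taken from 665/620 nm ratio relative to control, then fitted to give IC50.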

phosphorylated ERK = assay: KRAS G12D-mediated phosphorylated ERK inhibition assay (AlphaLISA), A427; type: cell-based; details: Homo sapiens, A-427; A427 cells; class symbols; read-out: pERK (A427) IC50
Method: The relative amounts of phosphorylated ERK and total ERK in the samples were separately determined according to the test methods provided in the instructions of the AlphaLISA SureFire Ultra p-ERK 1/2 (Thr202/Tyr204) kit (PerkinElmer) and the AlphaLISA SureFire Ultra TotalERK 1/2 kit (PerkinElmer).
The experimental procedures for the assay of the phosphorylated ERK and total ERK were as follows: 10 μL of each sample was added to a 384-well plate (Greiner), and 5 μL of the prepared Acceptor Beads (PerkinElmer) mixed solution (containing 50× Acceptor Beads 615, Activation Buffer, and equal volumes of Reaction Buffer 1 and Reaction Buffer 2) was added to each well; and the plate was incubated at room temperature for 2 h. Then 5 μL of 1× Donor Beads (PerkinElmer) diluted with Dilution Buffer was added to each well, and the plate was incubated at room temperature overnight. After the incubation was completed, AlphaLISA signal values for the phosphorylated ERK and total ERK were separately measured on an EnVision microplate reader (PerkinElmer) in the AlphaScreen standard mode. The following formula was adopted: phosphorylated ERK correction value=phosphorylated ERK AlphaLISA signal value/total ERK AlphaLISA signal value. The relative ratio of the phosphorylated ERK for each sample was calculated. The percentage inhibition rates of the compounds on the phosphorylated ERK at each concentration were calculated by comparing the relative value of the phosphorylated ERK with that of the DMSO control well. Then non-linear curve fittings for logarithmic concentration-inhibition rate were performed by the GraphPad Prism 8 analysis software, and the IC50 values of the compounds on the inhibition of the phosphorylated ERK were obtained (Table 2).

[2] = test system: KRAS G12D mutant human pancreatic cancer cell HPAC; assay: 3D cell proliferation inhibition assay, HPAC; type: cell-based; details: 168 h, 7 days, CTG
In short: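 Compound dilutions are added to low-adsorption wells, then cells at 5×10^2 cells/well. Final compound range is 10000–0.026 nM, with 0.2% DMSO. After 7 days at 37 °C with 5% CO2, CTG reagent is added and luminescence is read 60 min later. IC50 is fitted from inhibition relative to DMSO and medium controls.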

T1 sequence (P01116 1-188 isoform P01116-2 G12D): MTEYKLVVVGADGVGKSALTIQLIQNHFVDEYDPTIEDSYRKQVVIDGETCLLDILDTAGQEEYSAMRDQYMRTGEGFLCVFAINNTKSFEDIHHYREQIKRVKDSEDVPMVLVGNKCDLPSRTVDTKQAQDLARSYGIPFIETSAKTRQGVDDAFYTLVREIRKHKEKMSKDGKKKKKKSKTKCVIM

With `C#Cc1c(F)ccc2cc(O)cc(-c3ncc4c(N5CC6CCC(C5)N6)nc(OCC5(CN6CCN(CCC7CCN(C(=O)c8ccc(Cl)c(N9CCC(=O)NC9=O)c8)CC7)CC6)CC5)nc4c3F)c12` [Example 3, 1-(5-(4-(2-(4-((1-(((4-(3,8-diazabicyclo[3.2.1]octan-3-yl)-7-(8-ethynyl-7-fluoro-3-hydroxynaphthalen-1-yl)-8-fluoropyrido[4,3-d]pyrimidin-2-yl)oxy)methyl)cyclopropyl)methyl)piperazin-1-yl)ethyl)piperidine-1-carbonyl)-2-chlorophenyl)dihydropyrimidine-2,4(1H,3H)-dione] the pIC50 ([1]; class symbols) was at least 7.30 and the pIC50 (phosphorylated ERK) was 7.00 to 7.30.
`C#Cc1c(F)ccc2cc(O)cc(-c3ncc4c(N5CC6CCC(C5)N6)nc(OCC5(CN6CCN(CCCC7CCN(C(=O)c8ccc(Cl)c(N9CCC(=O)NC9=O)c8)CC7)CC6)CC5)nc4c3F)c12` [Example 4, 1-(5-(4-(3-(4-((1-(((4-(3,8-diazabicyclo[3.2.1]octan-3-yl)-7-(8-ethynyl-7-fluoro-3-hydroxynaphthalen-1-yl)-8-fluoropyrido[4,3-d]pyrimidin-2-yl)oxy)methyl)cyclopropyl)methyl)piperazin-1-yl)propyl)piperidine-1-carbonyl)-2-chlorophenyl)dihydropyrimidine-2,4(1H,3H)-dione] was tested, and the pIC50 ([1]; class symbols) was at least 7.30 and the pIC50 (phosphorylated ERK) was at least 7.30.
For `C#Cc1c(F)ccc2cc(O)cc(-c3ncc4c(N5CC6CCC(C5)N6)nc(OCC5(CN6CCN(CCCCC7CCN(C(=O)c8ccc(Cl)c(N9CCC(=O)NC9=O)c8)CC7)CC6)CC5)nc4c3F)c12` [Example 5, 1-(5-(4-(4-(4-((1-(((4-(3,8-diazabicyclo[3.2.1]octan-3-yl)-7-(8-ethynyl-7-fluoro-3-hydroxynaphthalen-1-yl)-8-fluoropyrido[4,3-d]pyrimidin-2-yl)oxy)methyl)cyclopropyl)methyl)piperazin-1-yl)butyl)piperidine-1-carbonyl)-2-chlorophenyl)dihydropyrimidine-2,4(1H,3H)-dione], the pIC50 ([1]; class symbols) was at least 7.30 and the pIC50 (phosphorylated ERK) was at least 7.30.
Work on `C#Cc1c(F)ccc2cc(O)cc(-c3ncc4c(N5CC6CCC(C5)N6)nc(OCC5(CN6CCN(CCCC7CCC8(CC7)CCN(C(=O)c7ccc(Cl)c(N9CCC(=O)NC9=O)c7)CC8)CC6)CC5)nc4c3F)c12` [Example 7, 1-(5-(9-(3-(4-((1-(((4-(3,8-diazabicyclo[3.2.1]octan-3-yl)-7-(8-ethynyl-7-fluoro-3-hydroxynaphthalen-1-yl)-8-fluoropyrido[4,3-d]pyrimidin-2-yl)oxy)methyl)cyclopropyl)methyl)piperazin-1-yl)propyl)-3-azaspiro[5.5]undecane-3-carbonyl)-2-chlorophenyl)dihydropyrimidine-2,4(1H,3H)-dione] yielded a pIC50 ([1]; class symbols) of at least 7.30 and a pIC50 (phosphorylated ERK) of at least 7.30.
Compound `C#Cc1c(F)ccc2cc(O)cc(-c3ncc4c(N5CC6CCC(C5)N6)nc(OCC5(CN6CCN(CCCC7CCN(C(=O)c8ccc(OC)c(N9CCC(=O)NC9=O)c8)CC7)CC6)CC5)nc4c3F)c12` [Example 8, 1-(5-(4-(3-(4-((1-(((4-(3,8-diazabicyclo[3.2.1]octan-3-yl)-7-(8-ethynyl-7-fluoro-3-hydroxynaphthalen-1-yl)-8-fluoropyrido[4,3-d]pyrimidin-2-yl)oxy)methyl)cyclopropyl)methyl)piperazin-1-yl)propyl)piperidine-1-carbonyl)-2-methoxyphenyl)dihydropyrimidine-2,4(1H,3H)-dione] has a pIC50 ([1]; class symbols) of at least 7.30 and a pIC50 (phosphorylated ERK) of at least 7.30.
In the case of `C#Cc1c(F)ccc2cc(O)cc(-c3ncc4c(N5CC6CCC(C5)N6)nc(OCC5(CN6CCC(CCOCC7CCN(C(=O)c8ccc(Cl)c(N9CCC(=O)NC9=O)c8)CC7)CC6)CC5)nc4c3F)c12` [Example 10], the pIC50 ([1]; class symbols) was at least 7.30 and the pIC50 (phosphorylated ERK) was at least 7.30.
`C#Cc1c(F)ccc2cc(O)cc(-c3ncc4c(N5CC6CCC(C5)N6)nc(OCC5(CN6CCC(COCC7CCN(C(=O)c8ccc(Cl)c(N9CCC(=O)NC9=O)c8)CC7)CC6)CC5)nc4c3F)c12` [Example 13, 1-(5-(4-(((1-((1-(((4-(3,8-diazabicyclo[3.2.1]octan-3-yl)-7-(8-ethynyl-7-fluoro-3-hydroxynaphthalen-1-yl)-8-fluoropyrido[4,3-d]pyrimidin-2-yl)oxy)methyl)cyclopropyl)methyl)piperidin-4-yl)methoxy)methyl)piperidine-1-carbonyl)-2-chlorophenyl)dihydropyrimidine-2,4(1H,3H)-dione] showed a pIC50 ([1]; class symbols) of at least 7.30 and a pIC50 (phosphorylated ERK) of at least 7.30.
`C#Cc1c(F)ccc2cc(O)cc(-c3ncc4c(N5CC6CCC(C5)N6)nc(OCC5(CN6CCN(CC7CCC8(CC7)CCN(C(=O)c7ccc(OC)c(N9CCC(=O)NC9=O)c7)CC8)CC6)CC5)nc4c3F)c12` [Example 14, 1-(5-(9-((4-((1-(((4-(3,8-diazabicyclo[3.2.1]octan-3-yl)-7-(8-ethynyl-7-fluoro-3-hydroxynaphthalen-1-yl)-8-fluoropyrido[4,3-d]pyrimidin-2-yl)oxy)methyl)cyclopropyl)methyl)piperazin-1-yl)methyl)-3-azaspiro[5.5]undecane-3-carbonyl)-2-methoxyphenyl)dihydropyrimidine-2,4(1H,3H)-dione] gave a pIC50 ([1]; class symbols) of at least 7.30 and a pIC50 (phosphorylated ERK) of at least 7.30.
In the case of `C#Cc1c(F)ccc2cc(O)cc(-c3ccc4c(N5CC6CCC(C5)N6)nc(OCC5(CN6CCN(CC7CCC8(CC7)CCN(C(=O)c7ccc(C)c(N9CCC(=O)NC9=O)c7)CC8)CC6)CC5)nc4c3F)c12` [Example 42, 1-(5-(9-((4-((1-(((4-(3,8-diazabicyclo[3.2.1]octan-3-yl)-7-(8-ethynyl-7-fluoro-3-hydroxynaphthalen-1-yl)-8-fluoroquinazolin-2-yl)oxy)methyl)cyclopropyl)methyl)piperazin-1-yl)methyl)-3-azaspiro[5.5]undecane-3-carbonyl)-2-methylphenyl)dihydropyrimidine-2,4(1H,3H)-dione], the pIC50 [2] was 8.53 and the pIC50 ([1]; class symbols) was at least 7.30.
In the case of `C#Cc1cccc2cc(O)cc(-c3ncc4c(N5CC6CCC(C5)N6)nc(OCC5(CN6CCN(CC7CCC8(CC7)CCN(C(=O)c7ccc(Cl)c(N9CCC(=O)NC9=O)c7)CC8)CC6)CC5)nc4c3F)c12` [Example 57, 1-(5-(9-((4-((1-(((4-(3,8-diazabicyclo[3.2.1]octan-3-yl)-7-(8-ethynyl-3-hydroxynaphthalen-1-yl)-8-fluoropyrido[4,3-d]pyrimidin-2-yl)oxy)methyl)cyclopropyl)methyl)piperazin-1-yl)methyl)-3-azaspiro [5.5]undecane-3-carbonyl)-2-chlorophenyl)dihydropyrimidine-2,4(1H,3H)-dione], the pIC50 [2] was 8.01 and the pIC50 ([1]; class symbols) was at least 7.30.
`C#Cc1c(F)ccc2cc(O)cc(-c3ncc4c(N5CC6CCC(C5)N6)nc(OCC(C)CN5CCN(CC6CCC7(CC6)CCN(C(=O)c6ccc(OC)c(N8CCC(=O)NC8=O)c6)CC7)CC5)nc4c3F)c12` (stereo not shown) [Example 84, 1-(5-(9-((4-(3-((4-(3,8-diazabicyclo[3.2.1]octan-3-yl)-7-(8-ethynyl-7-fluoro-3-hydroxynaphthalen-1-yl)-8-fluoropyrido[4,3-d]pyrimidin-2-yl)oxy)-2-methylpropyl)piperazin-1-yl)methyl)-3-azaspiro[5.5]undecane-3-carbonyl)-2-methoxyphenyl)dihydropyrimidine-2,4(1H,3H)-dione] was tested, and the pIC50 [2] was 8.89 and the pIC50 ([1]; numeric values) was 8.61.
